{
  "source": "patent US10696639B2",
  "about": "“Heterocyclic compounds as HIV protease inhibitors” (Merck Sharp & Dohme Corp., priority 2016, dated 2020)",
  "data": [
    {"target": "T1, wild-type HIV-1 protease (Human immunodeficiency virus type 1 group M subtype B, UniProt P04585)", "T1 construct": "Escherichia coli expressed wild-type HIV-1 protease protein; made in house; host or cells: Escherichia coli", "assay": "Assay for Inhibition of Microbial Expressed HIV Protease", "format": "biochemical", "settings": "E. coli expressed wild-type HIV-1 protease, peptide substrate cleavage, LC-MS readout; mean of at least two independent experiments; read-out: HIV Pr Enzyme HIV1 PR IC50", "experimental": "Assay for Inhibition of Microbial Expressed HIV Protease\nInhibition of Escherichia coli expressed wild-type HIV-1 protease protein was carried out with a peptide substrate [Val-Ser-Gln-Asn-(βnaphtyl)Ala-Pro-Ile-Val]. The inhibitor compound was preincubated with HIV-1 protease enzyme in assay buffer (50 mM sodium acetate, pH 5.5, 100 mM NaCl, and 0.1% BSA) for 30 minutes at room temperature. Peptide substrate was added to […] in a total volume of 20 μL containing 20 pM HIV-1 protease (final) after which the reaction was incubated for 1 hour at 30° C. The reaction was quenched by the addition of formic acid and HIV protease inhibitor indinavir to 0.012% and 150 nM final concentrations, respectively. Product formation was determined after separation of product and substrate on a ZORBAX Eclipse XDB-C18 column (Aligent Technologies, Santa Clara, Calif., USA) connected to an API 4000™ mass spectrometer (AB Sciex, Pte. Ltd., Concord Ontario, Canada) with multiple reaction monitoring (transitions were 644.5/428.9 and 615.4/422.2 (M1/M3) for product and indinavir respectively). The extent of inhibition of the reaction was determined from the peak area of the products. Analysis of the products, independently synthesized, provided quantitation standards and confirmation of the product composition.", "units": {"IC50": "nM"}, "values": [
      {"smiles": "COC(=O)N[C@@H](Cc1ccccc1)C(=O)NCCC[C@@H](CC1CC1)N1C(=N)N[C@](CC(C)C)(c2ccccc2)C1=O", "note": "[Example 53, N-{(4S)-5-cyclopropyl-4-[(4R)-2-imino-4-(2-methylpropyl)-5-oxo-4-phenylimidazolidin-1-yl]pentyl}-N-alpha-(methoxycarbonyl)-L-phenylalaninamide]", "IC50": 249},
      {"smiles": "COC(=O)N[C@@H](Cc1ccccc1)C(=O)NCCC[C@@H](C)N1C(=N)N[C@](CC(C)C)(c2ccccc2)C1=O", "note": "[Example 54, N-{(4R)-4-[(4R)-2-imino-4-(2-methylpropyl)-5-oxo-4-phenylimidazolidin-1-yl]pentyl}-N-alpha-(methoxycarbonyl)-L-phenylalaninamide]", "IC50": 190},
      {"smiles": "CC[C@H](CCCNC(=O)[C@H](Cc1ccccc1)NC(=O)OC)N1C(=N)N[C@](CC(C)C)(c2ccccc2)C1=O", "note": "[Example 55, N-{(4R)-4-[(4R)-2-imino-4-(2-methylpropyl)-5-oxo-4-phenylimidazolidin-1-yl]hexyl}-N-alpha-(methoxycarbonyl)-L-phenylalaninamide]", "IC50": 532},
      {"smiles": "COC(=O)N[C@@H](Cc1ccccc1)C(=O)NCCC[C@@H](CCC1CC1)N1C(=N)N[C@](CC(C)C)(c2ccccc2)C1=O", "note": "[Example 56, N-{(4R)-6-cyclopropyl-4-[(4R)-2-imino-4-(2-methylpropyl)-5-oxo-4-phenylimidazolidin-1-yl]hexyl}-N-alpha-(methoxycarbonyl)-L-phenylalaninamide]", "IC50": 100}
    ]}
  ]
}
